Experimental data: US12409154B2, “Pharmaceutical compositions for use in treating pain” (TAIWAN LIPOSOME COMPANY, LTD., priority 2019, dated 2025)

Legend:
[1] = tested on: adult subjects following inguinal hernia repair surgery; experiment: Phase I/II study, single infiltrative local administration after inguinal hernia repair surgery: efficacy (NPRS pain, rescue analgesic use); assay type: in vivo, human; details: TLC590 475 mg, ropivacaine group 150 mg
From the text: A Phase I/II, randomized, double-blind, comparator-controlled, dose-escalation study to assess the safety, PK, and efficacy of single postsurgical application of the anesthetic composition in accordance with the present disclosure (denoted as TLC590) compared with Naropin® via a single infiltrative local administration in adult subjects following inguinal hernia repair surgery. The study enrolled approximately 64 evaluable subjects who met all entry criteria across 4 cohorts. Dose escalation of a single postsurgical administration of TLC590 was performed using sequential dose levels, as compared with Naropin®. Dose-escalation were determined by review of […] (TEAEs) and all serious AEs (SAEs) by a safety monitoring committee (SMC). […] Pain intensity at rest and with movement assessed using an 11-point NPRS ranging from a score of 0 (no pain) to 10 (worst possible pain). • 2. […]

[2] = pKa of ropivacaine and calculated uncharged fraction; assay type: physicochemical; details: pH 6.0; calculated from pKa
Protocol: In some embodiments, the lipid-based complex of the anesthetic composition is formed by hydrating a lyophilized lipid cake with a pharmaceutically acceptable buffer solution at a pH higher than 5.5. […] In some embodiments, the lipid cake according to the present disclosure is prepared by dissolving apolar ropivacaine, phospholipid, and cholesterol in a solvent system, e.g., tert-butanol alone or a tert-butanol/water cosolvent, followed by removing the solvent system using a lyophilization technique.

- theoretically uncharged ropivacaine, share of available ropivacaine [2]: 0.8%
Structure (SMILES): CCCN1CCCC[C@H]1C(=O)Nc1c(C)cccc1C [ropivacaine]
- median time to first rescue analgesic [1]: 13 h
- median time to first postsurgical opioid use ([1]; among those who used rescue opioid): 3.3 h
